{"source": "ChEMBL document CHEMBL4308916", "about": "“Leucoflavonine, a new bioactive racemic flavoalkaloid from the leaves of Leucosceptrum canum” (Bioorg Med Chem, 2019)", "key": {"RAW264.7 [1]": {"test_system": "RAW264.7", "assay": "Anti-inflammatory activity in mouse RAW264.7 cells assessed as reduction in LPS-induced IL-6 production after 48 hrs by ELISA", "format": "functional, cell-based", "settings": "RAW264.7, 48 h"}, "RAW264.7 [2]": {"test_system": "RAW264.7", "assay": "Anti-inflammatory activity in mouse RAW264.7 cells assessed as reduction in LPS-induced TNF-alpha production after 48 hrs by ELISA", "format": "functional, cell-based", "settings": "RAW264.7, 48 h"}, "PC-9 [3]": {"test_system": "PC-9", "assay": "Cytotoxicity against human PC9 cells after 72 hrs by MTT assay", "format": "cell-based", "settings": "PC-9, 72 h"}, "Jurkat [4]": {"test_system": "Jurkat", "assay": "cells", "settings": "Homo sapiens, 48 h", "description": "Immunosuppressive activity in human Jurkat cells assessed as reduction in PHA + PMA-induced IL-2 production after 48 hrs by ELISA"}, "Acetylcholinesterase [5]": {"target": "T1, Acetylcholinesterase (Homo sapiens, UniProt P22303)", "T1 sequence (P22303 whole entry)": "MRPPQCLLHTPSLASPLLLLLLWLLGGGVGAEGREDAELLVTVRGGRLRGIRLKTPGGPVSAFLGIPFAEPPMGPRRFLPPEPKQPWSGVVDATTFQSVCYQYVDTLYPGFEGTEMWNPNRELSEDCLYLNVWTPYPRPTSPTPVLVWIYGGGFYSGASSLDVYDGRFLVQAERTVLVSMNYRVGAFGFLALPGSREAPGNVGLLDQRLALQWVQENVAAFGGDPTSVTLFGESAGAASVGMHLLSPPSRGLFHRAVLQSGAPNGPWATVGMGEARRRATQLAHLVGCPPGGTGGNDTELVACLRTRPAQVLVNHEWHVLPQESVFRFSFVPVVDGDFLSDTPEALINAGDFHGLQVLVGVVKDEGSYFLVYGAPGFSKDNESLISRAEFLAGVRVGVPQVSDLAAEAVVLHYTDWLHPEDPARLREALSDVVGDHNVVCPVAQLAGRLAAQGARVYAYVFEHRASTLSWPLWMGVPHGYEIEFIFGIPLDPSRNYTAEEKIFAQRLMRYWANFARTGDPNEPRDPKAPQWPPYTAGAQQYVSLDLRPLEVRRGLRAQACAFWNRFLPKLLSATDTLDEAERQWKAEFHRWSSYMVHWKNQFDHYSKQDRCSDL", "assay": "Inhibition of AChE (unknown origin) using acetylthiocholine iodide as substrate preincubated for 20 mins followed by substrate addition and measured every 30 secs for 1 hr by Ellman's assay"}, "Jurkat [6]": {"test_system": "Jurkat", "assay": "Immunosuppressive activity in human Jurkat cells assessed as reduction in PHA + PMA-induced IL-2 production at 20 uM after 48 hrs by ELISA", "format": "functional, cell-based"}, "NCI-H1975 [7]": {"test_system": "NCI-H1975", "assay": "cells", "settings": "Homo sapiens, NCI-H1975, 72 h", "description": "Cytotoxicity against human NCI-H1975 cells after 72 hrs by MTT assay"}, "HepG2 [8]": {"test_system": "HepG2", "assay": "cells", "settings": "Homo sapiens, HepG2, 72 h", "description": "Cytotoxicity against human HepG2 cells after 72 hrs by MTT assay"}, "Acetylcholinesterase [9]": {"target": "T1, Acetylcholinesterase", "assay": "Inhibition of AChE (unknown origin) at 250 uM using acetylthiocholine iodide as substrate preincubated for 20 mins followed by substrate addition and measured every 30 secs for 1 hr by Ellman's assay"}, "HepG2 [10]": {"test_system": "HepG2", "assay": "Cytotoxicity against human HepG2 cells at 80 uM after 72 hrs by MTT assay", "format": "cell-based", "settings": "hepg2, 72 h"}, "PC-9 [11]": {"test_system": "PC-9", "assay": "Cytotoxicity against human PC9 cells at 80 uM after 72 hrs by MTT assay", "format": "cell-based", "settings": "pc-9, 72 h"}, "NCI-H1975 [12]": {"test_system": "NCI-H1975", "assay": "Cytotoxicity against human NCI-H1975 cells at 80 uM after 72 hrs by MTT assay", "format": "cell-based", "settings": "nci-h1975, 72 h"}}, "note": "pIC50: −log10 of the molar value. Activity calls are given as the source filed them. The rule behind the calls is not given here."}
{"molecule": "C[C@@H]1C[C@H]2[C@@H]3CCC4=CC(=O)C=C[C@]4(C)[C@@]3(F)[C@@H](O)C[C@]2(C)[C@@]1(O)C(=O)CO", "note": "[DEXAMETHASONE]", "values": [{"measurement": "pIC50", "setting": "RAW264.7 [1]", "value": 5.03}, {"measurement": "pIC50", "setting": "RAW264.7 [2]", "value": 5.92}]}
{"molecule": "COc1ccc(-c2cc(=O)c3c(O)c(OC)c(O)cc3o2)cc1", "note": "[PECTOLINARIGENIN]", "values": [{"measurement": "pIC50", "setting": "PC-9 [3]", "value": "< 4.10"}, {"measurement": "pIC50", "setting": "RAW264.7 [1]", "value": "< 4.70"}, {"measurement": "pIC50", "setting": "Jurkat [4]", "value": "< 4.70"}, {"measurement": "pIC50", "setting": "Acetylcholinesterase [5]", "value": "< 3.60"}, {"measurement": "inhibition", "setting": "Jurkat [6]", "value": "inactive"}, {"measurement": "pIC50", "setting": "RAW264.7 [2]", "value": "< 4.70"}, {"measurement": "pIC50", "setting": "NCI-H1975 [7]", "value": 4.12}, {"measurement": "pIC50", "setting": "HepG2 [8]", "value": 4.74}, {"measurement": "inhibition", "setting": "Acetylcholinesterase [9]", "value": 37.8, "unit": "%"}]}
{"molecule": "COc1ccc(-c2cc(=O)c3cc(OC)c(O)c([C@@H]4CCC(=O)N4)c3o2)cc1", "values": [{"measurement": "Activity", "setting": "HepG2 [10]", "value": "Non-Toxic"}, {"measurement": "pIC50", "setting": "PC-9 [3]", "value": "< 4.10"}, {"measurement": "pIC50", "setting": "RAW264.7 [1]", "value": "< 4.70"}, {"measurement": "pIC50", "setting": "Jurkat [4]", "value": "< 4.70"}, {"measurement": "pIC50", "setting": "Acetylcholinesterase [5]", "value": 4.17}, {"measurement": "Activity", "setting": "PC-9 [11]", "value": "Non-Toxic"}, {"measurement": "pIC50", "setting": "RAW264.7 [2]", "value": "< 4.70"}, {"measurement": "pIC50", "setting": "NCI-H1975 [7]", "value": "< 4.10"}, {"measurement": "pIC50", "setting": "HepG2 [8]", "value": "< 4.10"}, {"measurement": "Activity", "setting": "NCI-H1975 [12]", "value": "Non-Toxic"}]}
{"molecule": "CC(=O)O[C@H]1C(=O)[C@@]2(C)[C@H]([C@H](OC(=O)c3ccccc3)[C@]3(O)C[C@H](OC(=O)[C@H](O)[C@@H](NC(=O)c4ccccc4)c4ccccc4)C(C)=C1C3(C)C)[C@]1(OC(C)=O)CO[C@@H]1C[C@@H]2O", "note": "[PACLITAXEL]", "values": [{"measurement": "pIC50", "setting": "PC-9 [3]", "value": 5.43}, {"measurement": "pIC50", "setting": "NCI-H1975 [7]", "value": 5.41}, {"measurement": "pIC50", "setting": "HepG2 [8]", "value": 4.99}]}
{"molecule": "COc1ccc(-c2cc(=O)c3cc(OC)c(O)c([C@H]4CCC(=O)N4)c3o2)cc1", "values": [{"measurement": "pIC50", "setting": "PC-9 [3]", "value": "< 4.10"}, {"measurement": "pIC50", "setting": "RAW264.7 [1]", "value": "< 4.70"}, {"measurement": "pIC50", "setting": "Jurkat [4]", "value": 4.78}, {"measurement": "pIC50", "setting": "Acetylcholinesterase [5]", "value": 4.74}, {"measurement": "pIC50", "setting": "RAW264.7 [2]", "value": "< 4.70"}, {"measurement": "pIC50", "setting": "NCI-H1975 [7]", "value": "< 4.10"}, {"measurement": "pIC50", "setting": "HepG2 [8]", "value": 4.28}]}
